# Biological target: T1, human Nav1.8 channels (Homo sapiens, UniProt Q9Y5Y9)
# T1 construct: expressed in transfected cells
# Assay: Nav1.8 Qube automated patch-clamp assay
# Format: cell-based
# Details: human Nav1.8 stably expressed in HEK 293 cells; whole-cell voltage clamp, room temperature; resting or inactivated state not specified; read-out: IC50 values (nM) for Examples in the Nav1.8 Qube Assay
# Procedure: Compounds were tested on human Nav1.8 and Nav1.5 channels stably expressed in human embryo kidney (HEK) 293 cells. Sodium current measurements on Qube® were conducted as follows: automated 384-well patch-clamp assays on the Qube® platform (Sophion Biosciences) were used to measure the inhibition of sodium flow through human Nav1.8 and Nav1.5 channels. Whole-cell voltage-clamp recordings were performed in QChips® (Sophion Biosciences) at room temperature. Nav1.8 current measurements on Qube® were obtained as follows: Nav1.8 currents were elicited with a 10 second 1 Hertz (Hz) pulse train from a holding potential of −90 millivolts (mV), delivered to the cells once per minute in the control condition (DMSO only) and after compound addition. The 1 hertz pulse train stimulation consisted of ten test pulses to 10 millivolt (mV) for 20 milliseconds (ms), each of which was followed by a 980 millisecond repolarization to −67 millivolts. At the end of the 10 second pulse train stimulation, a second hyperpolarization step to −100 millivolt (mV) was used to recover Nav1.8 from fast inactivation. The peak currents elicited by the 1st and 10th test pulses were used to determine IC50 values for resting inhibition and inactivated state inhibition. Nav1.5 current measurements on Qube® were obtained as follows: Nav1.5 currents were elicited with a 20 second 3 Hertz pulse train in the control condition (DMSO only) and after compound addition. The pulse train consisted of sixty 20 millisecond test pulses to 0 millivolt from a holding potential of −80 millivolt (mV). The average peak currents elicited by the last 3 test pulses were used to determine IC50 values for Nav1.5 inhibition.
# The following buffers were used for the Qube® recordings: External buffer for Nav1.8 Qube® recording: 150 NaCl, 2 CaCl2, 5 KCl, 1 Mg Cl2, 10 HEPES, 12 Dextrose; External buffer for Qube® Nav1.5 recording: 120 N-Methyl-D-Glucamine, 40 NaCl, 1 KCl, 2.7 CaCl2, 5 HEPES, 0.5 MgCl2: and Internal buffer for Qube® recording: 120 CsF, 30 CsCl, 10 EGTA, 5 HEPES, 5 NaF, 2 MgCl2.
# For all Qube® experiments offline analysis was used to determine percent inhibition as a function of drug concentration. IC50 values were determined by fitting to the Hill equation.
# T1 sequence (Q9Y5Y9 whole entry): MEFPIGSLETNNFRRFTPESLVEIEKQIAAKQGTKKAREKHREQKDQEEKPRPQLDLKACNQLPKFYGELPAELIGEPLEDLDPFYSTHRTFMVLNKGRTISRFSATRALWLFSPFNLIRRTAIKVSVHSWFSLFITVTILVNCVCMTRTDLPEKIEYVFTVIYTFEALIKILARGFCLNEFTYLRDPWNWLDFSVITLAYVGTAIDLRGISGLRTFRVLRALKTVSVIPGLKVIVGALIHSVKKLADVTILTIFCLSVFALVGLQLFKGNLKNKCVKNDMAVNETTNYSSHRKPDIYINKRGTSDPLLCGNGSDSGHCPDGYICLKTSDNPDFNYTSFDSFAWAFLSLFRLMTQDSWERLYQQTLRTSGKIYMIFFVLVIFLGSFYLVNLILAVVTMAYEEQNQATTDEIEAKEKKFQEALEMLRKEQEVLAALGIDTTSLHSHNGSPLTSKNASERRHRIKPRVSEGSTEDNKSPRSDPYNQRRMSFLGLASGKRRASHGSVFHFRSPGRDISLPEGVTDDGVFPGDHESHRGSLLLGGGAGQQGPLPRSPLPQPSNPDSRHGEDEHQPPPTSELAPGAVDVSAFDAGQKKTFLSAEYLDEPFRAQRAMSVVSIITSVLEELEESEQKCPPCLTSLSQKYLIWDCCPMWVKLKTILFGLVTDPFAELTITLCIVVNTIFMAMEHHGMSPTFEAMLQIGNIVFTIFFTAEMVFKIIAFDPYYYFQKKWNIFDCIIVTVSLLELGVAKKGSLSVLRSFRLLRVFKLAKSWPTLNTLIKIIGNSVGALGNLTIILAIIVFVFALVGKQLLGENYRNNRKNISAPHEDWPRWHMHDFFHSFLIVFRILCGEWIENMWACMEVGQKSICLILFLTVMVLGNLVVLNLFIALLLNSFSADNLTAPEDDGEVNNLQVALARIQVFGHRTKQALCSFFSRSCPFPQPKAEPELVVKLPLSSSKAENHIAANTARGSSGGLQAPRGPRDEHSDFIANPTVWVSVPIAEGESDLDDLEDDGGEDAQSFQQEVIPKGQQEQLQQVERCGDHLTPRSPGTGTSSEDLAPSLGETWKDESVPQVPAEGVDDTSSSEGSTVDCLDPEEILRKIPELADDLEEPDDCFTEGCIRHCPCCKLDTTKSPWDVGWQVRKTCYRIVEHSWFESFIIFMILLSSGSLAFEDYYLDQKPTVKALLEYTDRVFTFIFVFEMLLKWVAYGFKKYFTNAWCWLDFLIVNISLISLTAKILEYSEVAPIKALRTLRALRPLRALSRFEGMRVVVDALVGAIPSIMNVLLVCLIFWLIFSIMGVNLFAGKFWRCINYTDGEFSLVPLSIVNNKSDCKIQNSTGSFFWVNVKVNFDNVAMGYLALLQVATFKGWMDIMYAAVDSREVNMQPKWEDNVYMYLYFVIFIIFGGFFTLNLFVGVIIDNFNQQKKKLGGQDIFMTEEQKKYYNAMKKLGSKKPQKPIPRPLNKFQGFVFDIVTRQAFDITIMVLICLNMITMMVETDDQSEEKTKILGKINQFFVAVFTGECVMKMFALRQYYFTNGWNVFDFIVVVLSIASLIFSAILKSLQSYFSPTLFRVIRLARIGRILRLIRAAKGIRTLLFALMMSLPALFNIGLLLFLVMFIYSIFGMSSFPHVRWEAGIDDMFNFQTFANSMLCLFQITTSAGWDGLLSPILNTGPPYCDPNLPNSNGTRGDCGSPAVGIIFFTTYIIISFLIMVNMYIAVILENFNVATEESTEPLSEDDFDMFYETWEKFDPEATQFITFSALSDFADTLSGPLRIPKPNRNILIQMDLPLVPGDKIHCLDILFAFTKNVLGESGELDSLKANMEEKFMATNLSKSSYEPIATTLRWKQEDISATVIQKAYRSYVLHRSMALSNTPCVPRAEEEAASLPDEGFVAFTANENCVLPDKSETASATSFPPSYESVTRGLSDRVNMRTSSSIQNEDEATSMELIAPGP
row,SMILES,IC50 [nM]
1,"NS(=O)(=O)c1cc(NC(=O)c2cc(C(F)(F)F)cnc2N2CC(F)(F)C(F)(F)C2)ccn1 [Example 92, N-(2-sulfamoyl-4-pyridyl)-2-(3,3,4,4-tetrafluoropyrrolidin-1-yl)-5-(trifluoromethyl)pyridine-3-carboxamide]",659
2,"NC(=O)c1cc(NC(=O)c2cc(C(F)(F)F)cnc2N2CCCCCC2)ccn1 [Example 203, 4-(2-(azepan-1-yl)-5-(trifluoromethyl)nicotinamido)picolinamide]",139
3,"CC1(C)CN(c2ncc(C(F)(F)F)cc2C(=O)Nc2ccnc(S(N)(=O)=O)c2)CCN1CC(F)(F)F [Example 87, 2-[3,3-dimethyl-4-(2,2,2-trifluoroethyl)piperazin-1-yl]-N-(2-sulfamoyl-4-pyridyl)-5-(trifluoromethyl)pyridine-3-carboxamide]",223
4,"COc1cncc(NC(=O)c2cc(C(F)(F)F)cnc2N2CCCCCC2)c1 [Example 194, 2-(azepan-1-yl)-N-(5-methoxy-3-pyridyl)-5-(trifluoromethyl)-pyridine-3-carboxamide]",1550
5,"COc1nc(N2CCCC(F)(F)CC2)c(C(=O)Nc2ccnc(S(=O)(=O)NC(C)(C)C)c2)cc1Cl [Example 42, N-[2-(tert-butylsulfamoyl)pyridin-4-yl]-5-chloro-2-(4,4-difluoroazepan-1-yl)-6-methoxypyridine-3-carboxamide]",341
6,"O=C(Nc1cncc(CO)c1)c1cc(C(F)(F)F)cnc1N1CCCCCC1 [Example 196, 2-(azepan-1-yl)-N-[5-(hydroxymethyl)-3-pyridyl]-5-(trifluoro-methyl)pyridine-3-carboxamide]",5190
7,"Cc1nc(N2CCOC(C(F)F)C2)c(C(=O)Nc2ccnc(S(N)(=O)=O)c2)cc1Cl (single isomer, unassigned) [Example 124, (S or R)-5-chloro-2-(2-(difluoromethyl)morpholino)-6-methyl-N-(2-sulfamoylpyridin-4-yl)nicotinamide]",50
8,"Cc1nc(N2CCCCC2)c(C(=O)Nc2cc[nH]c(=O)c2)c(C)c1Cl [Example 211, 5-chloro-4,6-dimethyl-N-(2-oxo-1,2-dihydropyridin-4-yl)-2-(piperidin-1-yl)-nicotinamide]",357
9,"NS(=O)(=O)c1cncc(NC(=O)c2cc(C(F)(F)F)cnc2N2CCC(F)(F)CC2)n1 [Example 1, 2-(4,4-difluoropiperidin-1-yl)-N-(6-sulfamoylpyrazin-2-yl)-5-(trifluoromethyl)nicotinamide]",406
10,"NS(=O)(=O)c1cc(NC(=O)c2cc(-c3ccccc3)cnc2N2CCC(F)(F)CC2)ccn1 [Example 205, 2-(4,4-difluoropiperidin-1-yl)-5-phenyl-N-(2-sulfamoylpyridin-4-yl)nicotinamide]",71
11,"CC1CN(c2ncc(C(F)(F)F)cc2C(=O)Nc2ccnc(S(N)(=O)=O)c2)CC(C)C1O [Example 78, 2-[(3S,4r,5R)-4-hydroxy-3,5-dimethyl-1-piperidyl]-N-(2-sulfamoyl-4-pyridyl)-5-(trifluoromethyl)pyridine-3-carboxamide]",5080
12,"N#Cc1cc(NC(=O)c2cc(C(F)(F)F)cnc2N2CCCCCC2)ccn1 [Example 197, 2-(azepan-1-yl)-N-(2-cyano-4-pyridyl)-5-(tri-fluoromethyl)pyridine-3-carboxamide]",244
13,"CS(=O)(=O)n1nc(NC(=O)c2cc(C(F)(F)F)cnc2N2CCCC(F)(F)CC2)c2ccccc21 [Example 34, 2-(4,4-difluoroazepan-1-yl)-N-[1-(methylsulfonyl)-1H-indazol-3-yl]-5-(trifluoromethyl)pyridine-3-carboxamide]",50

# Now those with a lower IC50, led by results:
row,IC50 [nM],SMILES
1,26,"CC1CN(c2ncc(C(F)(F)F)cc2C(=O)Nc2ccnc(S(C)(=O)=O)c2)CCC1(F)F (single isomer, unassigned) [Example 148, 2-[(3R or 3S)-4,4-difluoro-3-methyl-1-piperidyl]-N-(2-methylsulfonyl-4-pyridyl)-5-(trifluoro-methyl)pyridine-3-carboxamide]"
2,2.1,"CC1CN(c2nc(C(F)(F)F)c(Cl)cc2C(=O)Nc2ccnc(S(N)(=O)=O)c2)CCC1(F)F (single isomer, unassigned) [Example 165, (R or S)-5-chloro-2-(4,4-difluoro-3-methylpiperidin-1-yl)-N-(2-sulfamoylpyridin-4-yl)-6-(trifluoromethyl)nicotinamide]"
3,20,"CC1CN(c2ncc(C(F)(F)F)cc2C(=O)Nc2ccnc(S(N)(=O)=O)c2)CCC(C(F)(F)F)O1 (single isomer, unassigned) [Example 122, 2-((2R,7R or 2S,7S)-2-methyl-7-(trifluoromethyl)-1,4-oxazepan-4-yl)-N-(2-sulfamoylpyridin-4-yl)-5-(trifluoromethyl)nicotinamide]"
4,12,"C[C@@H]1CN(c2ncc(C(F)(F)F)cc2C(=O)Nc2ccnc(S(N)(=O)=O)c2)CCC1(F)F (single isomer, unassigned) [Example 48]"
5,36,"NS(=O)(=O)c1cncc(NC(=O)c2cc(C(F)(F)F)cnc2N2CCCC(F)(F)CC2)c1 [Example 144, 2-(4,4-difluoroazepan-1-yl)-N-(5-sulfamoyl-3-pyridyl)-5-(trifluoro-methyl)pyridine-3-carboxamide]"
6,3.2,"Cc1nc(C2CCCCCC2)c(C(=O)Nc2ccnc(S(N)(=O)=O)c2)c(C)c1Cl [Example 217, 5-chloro-2-cycloheptyl-4,6-dimethyl-N-(2-sulfamoylpyridin-4-yl)nicotinamide]"
7,21,"NS(=O)(=O)c1cc(NC(=O)c2cc(C(F)(F)F)cnc2N2CCC[C@H]2C(F)(F)F)ccn1 [Example 126, N-(2-sulfamoylpyridin-4-yl)-5-(trifluoromethyl)-2-[(2S)-2-(trifluoromethyl)pyrrolidin-1-yl]pyridine-3-carboxamide]"
8,22,"CC1CN(c2nc(C(F)(F)F)ccc2C(=O)Nc2ccnc(S(N)(=O)=O)c2)CCC1(F)F (single isomer, unassigned) [Example 162, (R or S)-2-(4,4-difluoro-3-methylpiperidin-1-yl)-N-(2-sulfamoylpyridin-4-yl)-6-(trifluoromethyl)nicotinamide]"
9,14,"NS(=O)(=O)c1cc(NC(=O)c2cc(C(F)(F)F)cnc2N2C[C@@H]3[C@H](C2)C(F)(F)C3(F)F)ccn1 [Example 60, N-(2-sulfamoylpyridin-4-yl)-2-((1R,5S)-6,6,7,7-tetrafluoro-3-azabicyclo[3.2.0]heptan-3-yl)-5-(trifluoromethyl)nicotinamide]"
10,1.6,"CC1CCN(c2ncc(C(F)(F)F)cc2C(=O)Nc2ccnc(S(N)(=O)=O)c2)CCC1(F)F (stereo not shown) [Example 115, 2-(4,4-difluoro-5-methylazepan-1-yl)-N-(2-sulfamoylpyridin-4-yl)-5-(trifluoromethyl)pyridine-3-carboxamide]"
11,10,"NS(=O)(=O)c1cc(NC(=O)c2cc(C(F)(F)F)cnc2N2CC3CCC3(C(F)(F)F)C2)ccn1 (single isomer, unassigned) [Example 58, N-(2-sulfamoyl-4-pyridyl)-5-(trifluoromethyl)-2-[(1S,5S or 1R,5R)-1-(trifluoromethyl)-3-azabicyclo[3.2.0]heptan-3-yl]pyridin-3-carboxamide]"
12,24,"NS(=O)(=O)c1cc(NC(=O)c2cnc(C3CC3)nc2N2CCCC(F)(F)CC2)ccn1 [Example 38, 2-cyclopropyl-4-(4,4-difluoroazepan-1-yl)-N-(2-sulfamoylpyridin-4-yl)pyrimidine-5-carboxamide]"
13,5.9,"Cc1nc(N2CCCCCC2)c(C(=O)Nc2cncc(S(N)(=O)=O)c2)c(C)c1Cl [Example 188, 2-(azepan-1-yl)-5-chloro-4,6-dimethyl-N-(5-sulfamoyl-3-pyridyl)pyridine-3-carboxamide]"
14,4.1,"Cc1nc(N2CCCC(F)(F)CC2)c(C(=O)Nc2cnn(S(C)(=O)=O)c2)cc1Cl [Example 31, 5-chloro-2-(4,4-difluoroazepan-1-yl)-6-methyl-N-[1-(methylsulfonyl)-1H-pyrazol-4-yl]pyridine-3-carboxamide]"
15,2.9,"CC1CN(c2ncc(C(F)(F)F)cc2C(=O)Nc2ccnc(S(N)(=O)=O)c2)CCC(C(F)(F)F)O1 (single isomer, unassigned) [Example 120, 2-[(2S,7R or 2R,7S)-2-methyl-7-(trifluoromethyl)-1,4-oxazepan-4-yl]-N-(2-sulfamoylpyridin-4-yl)-5-(trifluoromethyl)pyridine-3-carboxamide]"

# From US20210387966A1, “2-AMINO-N-HETEROARYL-NICOTINAMIDES AS NAV1.8 INHIBITORS” (Merck Sharp & Dohme Corp., priority 2018, published 2021)
